Measurements as given in US10028961B2, “Therapeutically active compounds and their methods of use” (AGIOS PHARMACEUTICALS, INC., priority 2013, dated 2018).
Where two headings read alike, the source gives them in different places.

How the values were obtained:
[1] = target: IDH1 wt/IDH1 R132H heterodimer (Homo sapiens (Human), UniProt O75874, R132H); assay: In vitro assay for IDH1m R132H inhibitors, IDH1 wt/IDH1 R132H heterodimer, NADPH depletion (diaphorase/resazurin); type: biochemical
Method in brief: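 Read-out is NADPH left after α-KG reduction to 2-HG, measured via resorufin fluorescence after 5 min diaphorase/resazurin step at 25° C. Enzyme is sf9-expressed IDH1wt-his/IDH1R132H-flag heterodimer, pre-incubated 1 hr at room temperature with compound and cofactor. IC50s from DMSO stocks diluted 1:50.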

[2] = system: Neurosphere cells (TS603); assay: Cellular assay for IDH1m R132H inhibitors, 2-HG by LC-MS in neurosphere cells (TS603); type: cell-based; details: 2-HG in media at 48 hours
Method in brief: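 TS603 neurosphere cells in NeuroCult medium were dosed with compound (0.25% DMSO final) at 37 C, 5% CO2. After 48 hours, medium 2-HG was measured by LC-MS. At 72 hours, viability was read by CellTiter-Glo luminescence.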

IDH2 R140Q = IDH2 R140Q (Homo sapiens (Human), UniProt P48735, R140Q); assay: In vitro assay for IDH2m R140Q inhibitors, cofactor depletion assay; type: biochemical; details: IDH2 R140Q enzyme
Method in brief: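 Remaining cofactor measured fluorimetrically: diaphorase/resazurin Stop Mix […], halting the reaction. Before that, mutant enzyme and compound sat 1 h at RT, then substrate mix (4 μM NADPH, 1.6 mM α-KG) was added for 16 h at RT.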

[3] = target: IDH1-R132H homodimer enzyme (Homo sapiens (Human), UniProt O75874, R132H); assay: In vitro assay IDH1-R132H homodimer, NADPH depletion assay with NADPH/NADP preincubation; type: biochemical; details: 5 μM NADPH and 37.5 μM NADP
Method: The following describes the experimental procedures that can be used to obtain data on columns 3 and 5 of Table 5.
A test compound is prepared as 10 mM stock in DMSO and diluted to 50× final concentration in DMSO, for a 50 μl reaction mixture. IDH enzyme activity converting alpha-ketoglutarate to 2-hydroxyglutaric acid is measured using a NADPH depletion assay. In the assay the remaining cofactor is measured at the end of the reaction with the addition of a catalytic excess of diaphorase and resazurin, to generate a fluorescent signal in proportion to the amount of NADPH remaining. […] The reaction is started with the addition of 10 μl of Substrate Mix ([…], 5 mM alpha-ketoglutarate, in Assay Buffer) and the mixture is incubated for 60 minutes at room temperature.

HT1080 cells = assay: Cellular assay for IDH1m R132C inhibitors, 2-HG by LC-MS in HT1080 cells; type: cell-based; details: Homo sapiens, HT-1080
Method: The following describes the experimental procedures that can be used to obtain data on column 5 of Table 4.
Cells (HT1080 or U87MG) are grown in T125 flasks in DMEM containing 10% FBS, 1× penicillin/streptomycin and 500 ug/mL G418 (present in U87MG cells only). They are harvested by trypsin and seeded into 96 well white bottom plates at a density of 5000 cell/well in 100 ul/well in DMEM with 10% FBS. No cells are placed in columns 1 and 12. Cells are incubated overnight at 37° C. in 5% CO2. The next day test compounds are made up at 2× the final concentration and 100 ul are added to each cell well. The final concentration of DMSO is 0.2% and the DMSO control wells are plated in row G. The plates are then placed in the incubator for 48 hours. At 48 hours, 100 ul of media is removed from each well and analyzed by LC-MS for 2-HG concentrations. The cell plate is placed back in the incubator for another 24 hours. At 72 hours post compound addition, 10 mL/plate of Promega Cell Titer Glo reagent is thawed and mixed. The cell plate is removed from the incubator and allowed to equilibrate to room temperature. Then 100 ul of Promega Cell Titer Glo reagent is added to each well of media. The cell plate is then placed on an orbital shaker for 10 minutes and then allowed to sit at room temperature for 20 minutes. The plate is then read for luminescence with an integration time of 500 ms.
HT1080 cells are maintained in RPMI containing 10% FBS, 1× penicillin/streptomycin. […] The next day compounds are prepared in 100% DMSO and then diluted in media for a final concentration of 0.2% DMSO. Media is removed from the cell plates and 200 μL of the compound dilutions are added to each well. […] The cell plates are then allowed to incubate another 24 hours.

[4] = system: U87MG pLVX-IDH2 R140Q-neo cells; assay: U87MG pLVX-IDH2 R140Q-neo cell based assay, 2-HG by LC-MS; details: Homo sapiens, U-87 MG
[5] = IDH1 wt/R132H heterodimer, NADPH/NADP, not saturated, read-out: IDH1 wt/R132H NADPH/NADP IC50 not saturated

Sequence of IDH1 wt/IDH1 R132H heterodimer (O75874 whole entry R132H): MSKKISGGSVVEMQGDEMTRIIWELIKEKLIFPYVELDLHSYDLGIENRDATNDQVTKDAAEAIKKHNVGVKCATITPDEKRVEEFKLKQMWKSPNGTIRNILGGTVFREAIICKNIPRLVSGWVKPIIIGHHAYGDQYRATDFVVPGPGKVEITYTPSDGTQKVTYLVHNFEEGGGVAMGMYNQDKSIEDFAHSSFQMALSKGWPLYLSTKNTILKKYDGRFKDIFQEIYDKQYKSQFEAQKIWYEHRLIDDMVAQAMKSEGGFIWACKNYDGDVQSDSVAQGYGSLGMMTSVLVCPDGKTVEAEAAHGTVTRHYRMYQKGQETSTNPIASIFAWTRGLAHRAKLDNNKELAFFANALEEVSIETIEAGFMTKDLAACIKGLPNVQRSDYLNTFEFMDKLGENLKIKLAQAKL
Sequence of IDH1 wt/IDH1 R132H heterodimer (O75874 whole entry, stated change not applied): as the sequence (O75874 whole entry R132H) above, with H132R counted along it
Sequence of IDH1-R132H homodimer enzyme (O75874 whole entry R132H): as the sequence (O75874 whole entry R132H) above
Sequence of IDH2 R140Q (P48735 40-452 R140Q): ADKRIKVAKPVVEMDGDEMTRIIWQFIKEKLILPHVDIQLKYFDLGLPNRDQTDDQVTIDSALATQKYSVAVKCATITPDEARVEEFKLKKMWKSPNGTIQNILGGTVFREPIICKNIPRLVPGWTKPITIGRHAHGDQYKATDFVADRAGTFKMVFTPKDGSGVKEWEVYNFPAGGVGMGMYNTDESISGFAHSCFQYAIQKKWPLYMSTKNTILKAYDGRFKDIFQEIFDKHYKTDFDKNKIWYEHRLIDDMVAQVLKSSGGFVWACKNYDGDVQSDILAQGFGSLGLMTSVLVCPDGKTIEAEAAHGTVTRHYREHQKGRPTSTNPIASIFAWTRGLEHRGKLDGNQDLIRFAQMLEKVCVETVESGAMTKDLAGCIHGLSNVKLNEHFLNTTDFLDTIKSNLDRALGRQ

| SMILES | IC50 [1, 5] [µM] | IC50 [2] [µM] | IC50 (IDH2 R140Q) [µM] | IC50 [3] [µM] | IC50 (HT1080 cells) [µM] | IC50 [4] [µM] | IC50 ([1]; IDH1 wt/IDH1 R132H heterodimer, 300 μM NADP (saturated), read-out: IDH1 wt/R132H NADPH/NADP IC50 saturated) [µM] |
| --- | --- | --- | --- | --- | --- | --- | --- |
| Nc1ccc(F)c(-c2nc(Nc3cc(F)cc(F)c3)nc(NC3CCC(F)(F)C3)n2)n1 (stereo not drawn) [Compound 153] | < 0.05 |  | < 0.05 | < 0.05 | 0.05 to 0.1 | < 0.05 |  |
| N#Cc1cc(F)cc(Nc2nc(NC3CC(F)(F)C3)nc(-c3cccc(C(F)(F)F)n3)n2)c1 [Compound 154] | < 0.05 | < 0.05 | < 0.05 | < 0.05 | 0.1 to 1 | < 0.05 |  |
| CC(F)(F)c1nc(-c2nc(NC3CCC(F)(F)C3)nc(NC3CCC(F)(F)C3)n2)cs1 (stereo not drawn) [Compound 155] | < 0.05 | < 0.05 | < 0.05 | < 0.05 | 0.05 to 0.1 | < 0.05 |  |
| CC(Nc1nc(NC(C)C(F)(F)F)nc(-c2cncc(Cl)n2)n1)C(F)(F)F (stereo not drawn) [Compound 156] | < 0.05 | < 0.05 | < 0.05 | < 0.05 | < 0.05 | < 0.05 |  |
| FC1(F)CCCC1Nc1nc(NC2CCCC2(F)F)nc(-c2cccc(Cl)n2)n1 (stereo not drawn) [Compound 157] | < 0.05 | < 0.05 | 0.05 to 0.1 | < 0.05 | < 0.05 | 0.05 to 0.1 |  |
| CC(C)(O)CNc1nc(Nc2cc(F)cc(Cl)c2)nc(-c2cccc(C(C)(F)F)n2)n1 [Compound 236] | < 0.05 |  | < 0.05 | 0.1 to 1 | > 1 | < 0.05 |  |
| FC1(F)CCC(Nc2nc(NC3CN(c4ccccn4)C3)nc(-c3cccc(C(F)(F)F)n3)n2)C1 (stereo not drawn) [Compound 238] | < 0.05 | < 0.05 |  | 0.1 to 1 | 0.1 to 1 |  |  |
| O=C1C[C@H](Nc2nc(NC3CCC(F)(F)C3)nc(-c3cccc(C(F)(F)F)n3)n2)CN1c1ccccn1 (stereo partly drawn) [Compound 239] | < 0.05 | < 0.05 |  | 0.1 to 1 | 0.1 to 1 |  |  |
| FC1(F)CCC(Nc2nc(NC3CN(c4cccnc4)C3)nc(-c3cccc(C(F)(F)F)n3)n2)C1 (stereo not drawn) [Compound 243] | 0.05 to 0.1 | < 0.05 |  | > 1 | 0.1 to 1 |  |  |
| CC(C)(O)CNc1nc(NC2CCC(F)(F)C2)nc(-c2cccc(C(F)(F)F)n2)n1 (stereo not drawn) [Compound 264] | 0.1 to 1 | 0.05 to 0.1 |  | 0.1 to 1 | 0.1 to 1 |  |  |
| CC(C)(O)CNc1nc(NC2CCC(F)(F)CC2)nc(-c2cccc(C(F)(F)F)n2)n1 [Compound 287] | 0.1 to 1 |  | 0.1 to 1 | > 1 | > 1 | 0.1 to 1 |  |

The next lines start with the values.

| IC50 [1, 5] [µM] | IC50 [2] [µM] | IC50 (IDH2 R140Q) [µM] | IC50 [3] [µM] | IC50 (HT1080 cells) [µM] | IC50 [4] [µM] | IC50 ([1]; IDH1 wt/IDH1 R132H heterodimer, 300 μM NADP (saturated), read-out: IDH1 wt/R132H NADPH/NADP IC50 saturated) [µM] | SMILES |
| --- | --- | --- | --- | --- | --- | --- | --- |
| < 0.05 | < 0.05 | < 0.05 | < 0.05 | < 0.05 |  |  | C[C@@H](Nc1nc(NC(C(F)(F)F)C(F)(F)F)nc(-c2cccc(Cl)n2)n1)C(F)(F)F [Compound 100] |
| < 0.05 | < 0.05 | < 0.05 | < 0.05 | < 0.05 | < 0.05 |  | FC1(F)CC[C@@H](Nc2nc(N[C@H]3CCC(F)(F)C3)nc(-c3cccc(C(F)(F)F)n3)n2)C1 [Compound 102] |
| < 0.05 | < 0.05 | < 0.05 | < 0.05 | < 0.05 | < 0.05 |  | CCC(Nc1nc(NC(CC)C(F)(F)F)nc(-c2cccc(Cl)n2)n1)C(F)(F)F (stereo not drawn) [Compound 103] |
| < 0.05 |  | < 0.05 | < 0.05 | < 0.05 | < 0.05 |  | CC[C@@H](Nc1nc(N[C@H](CC)C(F)(F)F)nc(-c2cccc(Cl)n2)n1)C(F)(F)F [Compound 104] |
| < 0.05 | < 0.05 | < 0.05 | < 0.05 | 0.1 to 1 | < 0.05 |  | CC(Nc1nc(Nc2cc(F)cc(F)c2)nc(-n2ccc(C(F)(F)F)n2)n1)C(F)(F)F (stereo not drawn) [Compound 107] |
| < 0.05 | < 0.05 | < 0.05 | < 0.05 | 0.05 to 0.1 | < 0.05 |  | Fc1cc(F)cc(Nc2nc(NC3CCC(F)(F)C3)nc(-n3ccc(C(F)(F)F)n3)n2)c1 (stereo not drawn) [Compound 108] |
| < 0.05 | < 0.05 | < 0.05 | < 0.05 | < 0.05 | < 0.05 |  | FC1(F)CC[C@@H](Nc2nc(N[C@@H]3CCC(F)(F)C3)nc(-c3cccc(C(F)(F)F)n3)n2)C1 [Compound 111] |
| < 0.05 | < 0.05 | < 0.05 | < 0.05 | 0.1 to 1 | < 0.05 |  | N#Cc1cc(F)cc(Nc2nc(NC3CCC(F)(F)C3)nc(-n3ccc(C(F)(F)F)n3)n2)c1 (stereo not drawn) [Compound 112] |
| < 0.05 | < 0.05 | < 0.05 | < 0.05 | 0.1 to 1 | < 0.05 | < 0.05 | FC1(F)CC[C@@H](Nc2nc(Nc3ccnc(C(F)(F)F)c3)nc(-c3cncc(C(F)(F)F)n3)n2)C1 [Compound 116] |
| < 0.05 | < 0.05 | < 0.05 | < 0.05 | < 0.05 | < 0.05 |  | FC1(F)CC[C@H](Nc2nc(N[C@H]3CCC(F)(F)C3)nc(-c3cccc(C(F)(F)F)n3)n2)C1 [Compound 118] |
| < 0.05 | < 0.05 | < 0.05 | < 0.05 | 0.05 to 0.1 | < 0.05 |  | CC(Nc1nc(Nc2cc(F)cc(C#N)c2)nc(-n2ccc(C(F)(F)F)n2)n1)C(F)(F)F (stereo not drawn) [Compound 119] |
| < 0.05 | < 0.05 | < 0.05 | < 0.05 | 0.05 to 0.1 | < 0.05 |  | N#Cc1cc(F)cc(Nc2nc(NC3CC(F)(F)C3)nc(-c3nc(C(F)(F)F)cs3)n2)c1 [Compound 122] |
| < 0.05 | < 0.05 | < 0.05 | < 0.05 | 0.1 to 1 | < 0.05 |  | N#Cc1cc(F)cc(Nc2nc(NC3CCC(F)(F)C3)nc(-c3nc(C(F)(F)F)cs3)n2)c1 (stereo not drawn) [Compound 132] |
| < 0.05 | < 0.05 | < 0.05 | < 0.05 | 0.1 to 1 | < 0.05 |  | N#Cc1cc(F)cc(Nc2nc(NC3CC(F)(F)C3)nc(-n3ccc(C(F)(F)F)n3)n2)c1 [Compound 140] |
| < 0.05 | < 0.05 | < 0.05 | < 0.05 | < 0.05 | < 0.05 |  | CC(Nc1nc(NC(C)C(F)(F)F)nc(-n2ccc(C(F)(F)F)n2)n1)C(F)(F)F (stereo not drawn) [Compound 141] |
| < 0.05 | < 0.05 | < 0.05 | < 0.05 | 0.05 to 0.1 | < 0.05 |  | FC1(F)CCC(Nc2nc(NC3CC(F)(F)C3)nc(-c3cccc(C(F)(F)F)n3)n2)CC1 [Compound 143] |
| < 0.05 | < 0.05 | < 0.05 | < 0.05 | < 0.05 | < 0.05 |  | FC1(F)CC(Nc2nc(NC3CC(F)(F)C3)nc(-c3cncc(Cl)n3)n2)C1 [Compound 144] |
